Measured values as given in US12090155B2, “Methods” (INTRA-CELLULAR THERAPIES, INC., priority 2019, dated 2024).
Entries after “also recorded” stand apart in the source; their conditions may differ.

Columns and labels:
[1] = tested on: patients with Bipolar I or Bipolar II disorder experiencing a major depressive episode; experiment: Phase 3 placebo-controlled clinical trial, safety and tolerability; type: in vivo, human
Method: (§1) A multi-center, multi-national, randomized, double-blind, fixed-dose, placebo-controlled clinical trial is conducted substantially in accordance with the following protocol.
(§2) Patients are recruited according to the following criteria: • Major Inclusion Criteria: Male or female subjects of any race, ages 18-75 inclusive, with a clinical diagnosis of Bipolar I or Bipolar II disorder, experiencing a current major depressive episode, and able to provide written informed consent. • Major Exclusion Criteria: Any female subject who is pregnant or breast-feeding, and any subject judged to be medically inappropriate for study participation.
(§3) In the placebo arm, placebo is administered once daily every evening for 6 weeks. […] The study is quadruple-masked (i.e., to participant, care provider, investigator, and outcomes assessor).
(§4) The total study duration is about 10 weeks, including up to 2 weeks screening period (washout of prohibited medications), a 6-week double-blind treatment period, and 2-week safety follow-up period.
Incidence of Adverse Events (AEs) • b. Young Mania Rating Scale (YMRS) • c. Columbia Suicide Severity Rating Scale (C-SSRS) • d. Abnormal Involuntary Movement Scale (AIMS) • e. Barnes Akathisia Rating Scale (BARS) • f. Simpson Angus Scale (SAS) • g. Clinical laboratory evaluations • h. Electrocardiograms (ECGs) • i. Vital sign measurements • j. Physical examination and neurological findings

[2] = tested on: patients with Bipolar I or Bipolar II disorder experiencing a major depressive episode; experiment: Phase 3 placebo-controlled clinical trial, efficacy (MADRS, CGI-BP-S); type: in vivo, human
Method: as §1, §2, §3, §4
The primary outcome measure is the Montgomery-Åsberg Depression Rating Scale (MADRS) [Time Frame: Day 43]. Secondary outcome measures are the Clinical Global Impression Scale, Bipolar version (CGI-BP) [Time Frame: Day 43] and the Quality of Life Enjoyment and Satisfaction Questionnaire-Short Form (Q-LES-Q-SF) [Time Frame: Day 43].

[3] = 42 mg once daily orally for 6 weeks, Day 43, ITT
[4] = 42 mg once daily orally for 6 weeks, Day 43, listed as lumateperone
[5] = 42 mg once daily orally for 6 weeks, change from baseline to Day 43, ITT
[6] = 42 mg once daily, week 6, ITT population

CN1CCN2c3c(cccc31)[C@@H]1CN(CCCC(=O)c3ccc(F)cc3)CC[C@@H]12 [Lumateperone, 4-((6bR,10aS)-3-methyl-2,3,6b,9,10,10a-hexahydro-1H-pyrido[3′,4′: 4,5]pyrrolo[1,2,3-de]quinoxalin-8(7H)-yl)-1-(4-fluorophenyl)-1-butanone]
Emergence of mania as measured by the Young Mania Rating Scale (YMRS) and clinical global impression of severity for mania ([1]; 42 mg daily): did not exhibit emergence of mania
Extrapyramidal symptoms, akathisia, restlessness or other motor side effects (adverse event reports) ([1]; 42 mg daily): does not increase akathisia, restlessness, or other movement disorders; also recorded: no adverse event reports of extrapyramidal symptoms
Metabolic effects (hyperglycemia, dyslipidemia, weight gain) ([1]; 42 mg daily): does not have significant metabolic side effects; also recorded: did not appear to have any noticeable metabolic effects
Overall safety profile / tolerability ([1]; 42 mg daily): favorable safety profile in this trial, comparable to placebo; also recorded: generally safe and well tolerated
Rate of the most commonly reported adverse events (headache, somnolence and nausea), higher than placebo ([1]; 42 mg daily): greater than 5%
Rates of akathisia and extrapyramidal symptoms ([1]; 42 mg daily): less than 1%
Suicidal ideation (adverse event reports) ([1]; 42 mg daily): does not increase suicidal ideation; also recorded: no adverse event reports of suicidal ideation
Number of patients with drug-related TEAE ([1]; 42 mg, N = 188): 78 (41.5) n (%)
Number of patients with drug-related treatment-emergent SAE ([1]; 42 mg, N = 188): 0 n (%)
Number of patients with treatment-emergent SAE ([1]; 42 mg, N = 188): 1 (0.5) n (%)
Number of patients with treatment-emergent death ([1]; 42 mg, N = 188): 0 n (%)
Subjects discontinued study due to TEAE ([1]; 42 mg, N = 188): 11 (5.9) n (%)
Subjects discontinued study due to drug-related TEAE ([1]; 42 mg, N = 188): 9 (4.8) n (%)
Subjects discontinued study due to drug-related treatment-emergent SAE ([1]; 42 mg, N = 188): 0 n (%)
Subjects discontinued study due to treatment-emergent SAE ([1]; 42 mg, N = 188): 1 (0.5) n (%)
Subjects who died ([1]; 42 mg, N = 188): 0 n (%)
Number of patients with one or more TEAE ([1]; 42 mg, N = 188, safety population): 103 (54.8) n (%)
MADRS total score versus placebo, subgroup of patients with Bipolar II disorder ([2]; 42 mg daily, subgroup analysis, Bipolar II disorder): statistically significant superior versus placebo; also recorded: statistically significant superior to placebo
Responder rates and remission rates versus placebo ([2]; 42 mg once daily): statistically significant benefits
Time of first statistically significant separation from placebo on MADRS total score ([2]; 42 mg once daily): as early as week 1
MADRS total score, Effect Size, comparison to placebo at Day 43 ([2]; 42 mg once daily orally for 6 weeks, Day 43): −0.56
CGI-BP-S total score, LSMD (SE), comparison to placebo at Day 43 [2, 3]: −0.9 (0.22)
MADRS total score, LSMD (SE), comparison to placebo at Day 43 [2, 3]: -4.6
CGI-BP-S total score, Effect Size, comparison to placebo at Day 43 [2, 4]: 0.46
MADRS total score, Effect Size, comparison to placebo at Day 43 [2, 4]: 0.56
CGI-BP-S total score, LS Mean (SE) Change at Day 43 [2, 5]: −3.5 (0.17)
MADRS total score, LS Mean (SE) Change at Day 43 [2, 5]: −16.7 (0.69)
CGI-S Depression Score, effect size versus placebo ([2]; 42 mg once daily, 6 weeks): 0.5
MADRS total score, LS mean difference versus placebo [2, 6]: 4.6 points
MADRS total score, least squares (LS) mean reduction from baseline [2, 6]: 16.7 points
